pIC50: −log10 of the molar value. ≈ marks a conversion by molar mass, not a printed value. Calls of active or inactive are those of the source. The calls are words filed in the database; no cut-off is given here.
Assays:
Candida albicans [1] = assay: Induction of mitochondrial membrane potential loss in Candida albicans ATCC SC5314 assessed as polarized cells at 1 umol/ml incubated for 24 hrs by JC-1 staining based flow cytometry assay (reference value: 0.69%); type: functional; settings: dose 1 µmol/L, at 1 µM
[2] = biological target: T1, Lanosterol 14-alpha demethylase (Candida albicans (strain SC5314 / ATCC MYA-2876) (Yeast), UniProt P10613); assay: Inhibition of CYP51 in Candida albicans ATCC SC5314 assessed as ergosterol level at 4 ug/ml incuabted for 48 hrs by GC-MS analysis (reference value: 96.48%); design: scale not given: the % may be the effect or the level left; settings: at 4 µg/mL
T1 sequence (P10613 whole entry): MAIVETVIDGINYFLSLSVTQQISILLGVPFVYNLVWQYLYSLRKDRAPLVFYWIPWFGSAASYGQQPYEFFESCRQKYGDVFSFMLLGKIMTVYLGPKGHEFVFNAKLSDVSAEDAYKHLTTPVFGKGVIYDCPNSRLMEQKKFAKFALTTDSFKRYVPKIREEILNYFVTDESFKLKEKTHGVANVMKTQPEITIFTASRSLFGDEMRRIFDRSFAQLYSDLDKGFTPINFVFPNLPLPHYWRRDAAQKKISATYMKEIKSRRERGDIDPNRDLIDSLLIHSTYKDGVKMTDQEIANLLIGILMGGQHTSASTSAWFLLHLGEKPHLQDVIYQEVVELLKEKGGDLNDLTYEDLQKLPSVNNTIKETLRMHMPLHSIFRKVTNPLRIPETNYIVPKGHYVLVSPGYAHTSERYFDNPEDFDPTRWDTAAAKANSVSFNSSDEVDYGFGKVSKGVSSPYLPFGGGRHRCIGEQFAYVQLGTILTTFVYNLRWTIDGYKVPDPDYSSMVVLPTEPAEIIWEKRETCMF

Mus musculus [3] = species: Mus musculus; assay: Antiinflammatory activity against mouse infected with Candida albicans ATCC SC5314 assessed as reduction in COX-2 expression in spleen by Western blot analysis; type: functional; design: scale not given: the % may be the effect or the level left
Mus musculus [4] = species: Mus musculus; assay: Antiinflammatory activity in mouse infected with Candida albicans ATCC SC5314 assessed as reduction in MMP-9 expression in spleen by hematoxylin staining based inverted microscopic analysis (reference value: 36.74 a.u.); type: functional
Candida albicans [5] = assay: Induction of apoptosis in Candida albicans ATCC SC5314 assessed as normal cells incuabted for 24 hrs by V-FITC/PI staining based flow cytometry analysis (reference value: 96.78%); type: functional
Candida albicans [6] = assay: Antifungal activity against fluconazole- resistant Candida albicans 17# assessed as fungal growth inhibition measured after 72 hrs by double dilution method; type: functional
[7] = biological target: T1, Lanosterol 14-alpha demethylase; assay: Inhibition of CYP51 in Candida albicans ATCC SC5314 assessed as eburicol level at 4 ug/ml incuabted for 48 hrs by GC-MS analysis (reference value: 1.05%); design: scale not given: the % may be the effect or the level left; settings: at 4 µg/mL
Candida albicans [8] = assay: Antifungal activity against fluconazole -resistant Candida albicans CaR assessed as fungal growth inhibition measured after 72 hrs by double dilution method; type: functional
[9] = biological target: T1, Lanosterol 14-alpha demethylase; assay: Inhibition of CYP51 in Candida albicans ATCC SC5314 assessed as lanosterol level at 4 ug/ml incuabted for 48 hrs by GC-MS analysis relative to control; design: scale not given: the % may be the effect or the level left; settings: at 4 µg/mL
[10] = Toxicity in mouse infected with Candida albicans assessed as heart injury at 10 ug per 20 g, ip administered on day 2, 4, 6, 8, 10 and 12 and measured on day 14 by H and E staining based assay; type: organism-based; settings: in vivo, 336 h, dose 10 µg, time 14 day
Candida albicans [11] = assay: Induction of apoptosis in Candida albicans ATCC SC5314 assessed as late apoptotic cells incuabted for 24 hrs by V-FITC/PI staining based flow cytometry analysis (reference value: 0.36%); type: functional
Candida albicans [12] = assay: Induction of mitochondrial membrane potential loss in Candida albicans ATCC SC5314 assessed as depolarized cells at 1 umol/ml incubated for 24 hrs by JC-1 staining based flow cytometry assay (reference value: 0.76 to 3.29%); type: functional; settings: dose 1 µmol/L, at 1 µM
Cryptococcus neoformans = assay: Antifungal activity against Cryptococcus neoformans ZKCC 2209 assessed as fungal growth inhibition measured after 72 hrs by double dilution method; type: functional
Candida albicans [13] = assay: Antifungal activity against Candida albicans ATCC SC5314 assessed as decrease in fungal cell density measured at 48 hrs by fluorescence microscopy (reference value: 258%); type: functional; design: scale not given: the % may be the effect or the level left
Mus musculus [14] = species: Mus musculus; assay: Immunostimulatory activity in mouse infected with Candida albicans ATCC SC5314 assessed as increase in CD3+ expression level in spleen by immunohistochemical analysis; type: functional
Candida albicans [15] = assay: Induction of mitochondrial membrane potential loss in Candida albicans ATCC SC5314 assessed as normal cells at 1 umol/ml incubated for 24 hrs by JC-1 staining based flow cytometry assay (reference value: 95.26%); type: functional; settings: dose 1 µmol/L, at 1 µM
Candida albicans [16] = assay: Antifungal actvity against Candida albicans ATCC SC5314 infected in mouse assessed as reduction in fungal infection at 10 ug per 20 g, ip administered on day 2, 4, 6, 8, 10 and 12 and measured on day 14; type: functional, organism-based; settings: dose 10.0 µg, time 14.0 day
Candida albicans [17] = assay: Antifungal activity against fluconazole -resistant Candida albicans 904 assessed as fungal growth inhibition measured after 72 hrs by double dilution method; type: functional
Candida tropicalis = assay: Antifungal activity against Candida tropicalis ATCC 1369 assessed as fungal growth inhibition measured after 72 hrs by double dilution method; type: functional
Candida albicans [18] = assay: Antifungal activity against fluconazole -resistant Candida albicans 632 assessed as fungal growth inhibition measured after 72 hrs by double dilution method; type: functional
Mus musculus [19] = species: Mus musculus; assay: Antiinflammatory activity against mouse infected with Candida albicans ATCC SC5314 assessed as reduction in MMP-9 expression in spleen by Western blot analysis; type: functional, organism-based
[20] = biological target: T1, Lanosterol 14-alpha demethylase; assay: Inhibition of CYP51 in Candida albicans SC5314 using Eburicol as substrate preincubated for 20 mins followed by substrate addition and measured after 4 mins by HPLC analysis; type: single protein
Pichia kudriavzevii = assay: Antifungal activity against Candida krusei ATCC 6258 assessed as fungal growth inhibition measured after 72 hrs by double dilution method; type: functional
Mus musculus [21] = species: Mus musculus; assay: Immunostimulatory activity in mouse infected with Candida albicans ATCC SC5314 assessed as increase in CD8+ expression level in spleen by immunohistochemical analysis; type: functional
Candida albicans [22] = assay: Induction of apoptosis in Candida albicans ATCC SC5314 assessed as mid apoptotic cells incuabted for 24 hrs by V-FITC/PI staining based flow cytometry analysis (reference value: 1.09%); type: functional
Candida albicans [23] = assay: Induction of apoptosis in Candida albicans ATCC SC5314 assessed as necrotic cells incuabted for 24 hrs by V-FITC/PI staining based flow cytometry analysis (reference value: 1.77%); type: functional
[24] = biological target: T1, Lanosterol 14-alpha demethylase; assay: Inhibition of CYP51 in Candida albicans ATCC SC5314 assessed as unknown sterol level at 4 ug/ml incuabted for 48 hrs by GC-MS analysis (reference value: 2.47%); design: scale not given: the % may be the effect or the level left; settings: at 4 µg/mL
Candida albicans [25] = assay: Antifungal activity against Candida albicans ATCC SC5314 assessed as fungal growth inhibition measured after 72 hrs by double dilution method; type: functional
[26] = Toxicity in mouse infected with Candida albicans assessed as AST level in plasma at 10 ug per 20 g, ip administered on day 2, 4, 6, 8, 10 and 12 and measured on day 14 (reference value: 74.9 +/- 6.7 IU/L); type: organism-based; settings: in vivo, 336 h, dose 10 µg, time 14 day
[27] = Toxicity in mouse infected with Candida albicans assessed as ALT level in plasma at 10 ug per 20 g, ip administered on day 2, 4, 6, 8, 10 and 12 and measured on day 14 (reference value: 43.6 +/- 4.4 IU/L); type: organism-based; settings: in vivo, 336 h, dose 10 µg, time 14 day
Candida albicans [28] = assay: Antifungal activity against fluconazole -resistant Candida albicans 901 assessed as fungal growth inhibition measured after 72 hrs by double dilution method; type: functional
Aspergillus fumigatus = assay: Antifungal activity against Aspergillus fumigatus KM8001 assessed as fungal growth inhibition measured after 72 hrs by double dilution method; type: functional
Mus musculus [29] = species: Mus musculus; assay: Immunostimulatory activity in mouse infected with Candida albicans ATCC SC5314 assessed as reduction in PD-L1 expression in spleen by western blot analysis relative to control; type: functional; design: scale not given: the % may be the effect or the level left
Candida albicans [30] = assay: Antifungal activity against Candida albicans ATCC SC5314 assessed as decrease in fungal cell density measured immediately by fluorescence microscopy (reference value: 126%); type: functional; design: scale not given: the % may be the effect or the level left
[31] = Toxicity in mouse infected with Candida albicans assessed as BUN level in plasma at 10 ug per 20 g, ip administered on day 2, 4, 6, 8, 10 and 12 and measured on day 14 (reference value: 8.2 +/- 0.5 mmol/L); type: organism-based; settings: in vivo, 336 h, dose 10 µg, time 14 day

Structure (SMILES)	Activity (Candida albicans [1]) [%]	Activity [2] [%]	Activity (Mus musculus [3]) [%]	Activity (Candida albicans [5]) [%]	MIC50 (Candida albicans [6]) [µg/mL]	Activity [7] [%]	MIC50 (Candida albicans [8]) [µg/mL]	Activity [9] [%]	Activity (Candida albicans [11]) [%]	Activity (Candida albicans [12]) [%]	MIC50 (Cryptococcus neoformans) [µg/mL]	Activity (Candida albicans [13]) [%]	Activity (Mus musculus [14])	Activity (Candida albicans [15]) [%]	Activity (Candida albicans [16])	MIC50 (Candida albicans [17]) [µg/mL]	MIC50 (Candida tropicalis) [µg/mL]	MIC50 (Candida albicans [18]) [µg/mL]	pIC50 [20]	MIC50 (Pichia kudriavzevii) [µg/mL]	also measured
COc1ccc2cc([C@H](C)C(=O)NC(Cn3cncn3)C(=O)c3ccccc3)ccc2c1 (some centres not stated)	0.81	8.62	11.32	50.92	1 (≈ 2.33 µM)	35.68	1 (≈ 2.33 µM)	46.09	22.73	3.14	0.125 (≈ 0.292 µM)	62	Active	44.19	Active	2 (≈ 4.67 µM)	0.125 (≈ 0.292 µM)	4 (≈ 9.34 µM)	7.10	0.25 (≈ 0.583 µM)	Activity (Mus musculus [4]): 12.13 a.u.; Activity [10]: Non-Toxic; Activity (Mus musculus [19]): Active; Activity (Mus musculus [21]): Active; Activity (Candida albicans [22]): 14.76%; Activity (Candida albicans [23]): 11.59%; Activity [24]: 9.61%; MIC50 (Candida albicans [25]): 0.25 µg/mL (≈ 0.583 µM); Activity [26]: 75.1 IU/L; Activity [27]: 39.4 IU/L; MIC50 (Candida albicans [28]): 1 µg/mL (≈ 2.33 µM); MIC50 (Aspergillus fumigatus): 2 µg/mL (≈ 4.67 µM); Activity (Mus musculus [29]): 12.36%; Activity (Candida albicans [30]): 115%; Activity [31]: 10.5 mmol/L
CC(C)NC(=O)[C@@H](Cn1ccnc1)NC(=O)[C@@H](C)c1cccc(C(=O)c2ccccc2)c1	0.39	11.27	18.41	53.73	2 (≈ 4.62 µM)	37.35	1 (≈ 2.31 µM)	39.58	12.5	0.76	0.5 (≈ 1.16 µM)	72	Active	62.2	Active	4 (≈ 9.25 µM)	0.5 (≈ 1.16 µM)	4 (≈ 9.25 µM)	6.82	0.25 (≈ 0.578 µM)	Activity (Mus musculus [4]): 12.13 a.u.; Activity (Mus musculus [19]): Active; Activity (Mus musculus [21]): Active; Activity (Candida albicans [22]): 2.81%; Activity (Candida albicans [23]): 30.96%; Activity [24]: 11.8%; MIC50 (Candida albicans [25]): 0.125 µg/mL (≈ 0.289 µM); Activity [26]: 69.8 IU/L; Activity [27]: 41.2 IU/L; MIC50 (Candida albicans [28]): 2 µg/mL (≈ 4.62 µM); MIC50 (Aspergillus fumigatus): 2 µg/mL (≈ 4.62 µM); Activity (Mus musculus [29]): 9.84%; Activity (Candida albicans [30]): 121%; Activity [31]: 12.1 mmol/L
OC(Cn1cncn1)(Cn1cncn1)c1ccc(F)cc1F [FLUCONAZOLE]	0.39	13.19	47.23	68.17	> 8	40.24	> 8	35.17	1.56	0.37	0.5 (≈ 1.63 µM)	75	2.5	81.14	Active	> 8	0.5 (≈ 1.63 µM)	> 8	6.85	1 (≈ 3.27 µM)	Activity [10]: Non-Toxic; Activity (Mus musculus [21]): 2.5; Activity (Candida albicans [22]): 0.4%; Activity (Candida albicans [23]): 29.87%; Activity [24]: 11.4%; MIC50 (Candida albicans [25]): 0.5 µg/mL (≈ 1.63 µM); Activity [26]: 81.6 IU/L; Activity [27]: 37.5 IU/L; MIC50 (Candida albicans [28]): > 8 µg/mL; MIC50 (Aspergillus fumigatus): > 8 µg/mL; Activity (Mus musculus [29]): 31.81%; Activity (Candida albicans [30]): 119%; Activity [31]: 9.7 mmol/L

From ChEMBL document CHEMBL5113529, “Design, Synthesis, and Biological Evaluation of Dual-Target COX-2/CYP51 Inhibitors for the Treatment of Fungal Infectious Diseases” (J Med Chem, 2022)
